This note sets out measurements from patent US11986487B2, “Mixture of HMOS for treating wheat sensitivity” (GLYCOM A/S, priority 2017, dated 2024).

This experiment has as its system human LS174T cell culture model of goblet cells. The experiment can be described thus: Goblet cell gene expression by quantitative RT-PCR. The format is cell-based. As to conditions: 5 mg HMO/ml, compared to control cultures. The method, then: 2′-FL and LNnT are tested with respect to their ability to induce MUC2, TFF3, EIMβ, CHST5, and GAL3ST2 expression in the human LS174T cell culture model of goblet cells. The human LS174T cell line is obtained from the American Type Culture Collection (ATCC). LS174T cells are maintained in minimum essential medium (MEM) supplemented according to instructions at 37° C. in air containing 5% of CO2. 2′-FL and LNnT are dissolved in cell culture grade water to the required concentration. The LS174T cells are treated with the HMO solution containing 0 or 5 mg HMO/ml. The LS174T cells are collected and suspended in Trizol reagent and total RNA is isolated using an RNA analysis kit (Qiagen) according to the manufacturer's instructions and the RNA isolates are quantified using Nanodrop analysis (Thermo Fisher Scientific). RNA isolates are reverse transcribed using a high capacity cDNA Reverse Transcription Kit (Applied Biosystems) to create cDNA, which is then used to assess gene expression via quantitative RT-PCR. For the quantitative RT-PCR, specific TaqMAN gene expression assays are obtained from Applied Biosystems, which include expression assays for MUC2, TFF3, CHST5 and GAL3ST2. Quantitative real-time PCR is performed using TaqMAN PCR Master Mix (Applied Biosystems). Reactions are run in duplicates in a 384-well plate using an Applied Biosystems 7900HT Fast Real-Time PCR System. The results are analysed using SDS 2.3 software and calculated by delta Ct method. All samples are normalized to Gus-β expression and fold induction is calculated over untreated controls. Gene expression is expressed as fold increase compared to HMO-free control cells. The experiment is repeated three times.

As to 2′-fucosyllactose [2′-FL], the “expression of CHST5” value is given as “minimal induction”, the “expression of GAL3ST2” value is “lack of induction”, the “expression of the MUC2 gene” value was “increases” and the “expression of the TFF3 gene” value was “increases”.
Take `CC(=O)N[C@H]1[C@H](O[C@H]2[C@@H](O)[C@@H](CO)O[C@@H](O[C@H]3[C@H](O)[C@@H](O)C(O)O[C@@H]3CO)[C@@H]2O)O[C@H](CO)[C@@H](O[C@@H]2O[C@H](CO)[C@H](O)[C@H](O)[C@H]2O)[C@@H]1O` (mixture of isomers) [LNnT, lacto-N-neotetraose]: the “expression of CHST5” value was “minimal induction”, the “expression of GAL3ST2” value is given as “lack of induction”, the “expression of the MUC2 gene” value is on record as “increases” and the “expression of the TFF3 gene” value is “increases”.
